{"source": "patent US20220257552A1", "about": "“METHODS OF PRESCREENING AND TREATING BREAST CANCERS WITH SELECTIVE ANDROGEN RECEPTOR MODULATORS” (priority 2021, published 2022)", "key": {"HCI-7 PDX": {"test_system": "HCI-7 PDX", "assay": "HCI-7 (HCI-007) patient-derived xenograft in NSG mice", "type": "in vivo", "protocol": "HCI-007 tumor pieces (1 mm^3) were implanted surgically (one per mouse) under the skin on the flanks of NSG mice. Simultaneously, 17β-estradiol pellet (Innovative Research of America) was implanted surgically under the skin of each mouse. Tumors were allowed to grow and reach approximately 100 mm^3 volume (1*W*W*0.526). […] Tumor volume was measured weekly and represented as % change in tumor volume (FIG. 32). Mice were sacrificed and tumors stored for further analysis.\n(§1) All animal protocols were approved by The University of Tennessee Health Science Center (UTHSC) Institutional Animal Care and Use Research Committee. Xenograft experiments were performed as previously published (Narayanan et al. (2014) PLoS One 9, e103202). Briefly, 3 million MCF-7 cells were suspended in 0.05 ml MEM+10% FBS and 0.05 ml Matrigel/nude mouse and were injected subcutaneously. Once the tumor size reached 100-200 mm^3, the animals were randomized and treated orally with the indicated drugs formulated in DMSO:PEG-300 (15:85). HCI-7, HCI-9, and HCI-13 PDXs were gifts kindly donated by Dr. Alana Welm (Huntsman Cancer Institute, Salt Lake City, Utah). HCI PDX tumor fragments (1 mm^3) were surgically implanted under the mammary fat pad in female NOD SCID Gamma (NSG) mice. Tumor volume was measured twice weekly for MCF-7 xenograft and once or twice weekly for HCI PDXs. At the end of the study, animals were sacrificed and tumors were excised, weighed, and stored for various analyses.\nFrom the several PDXs available, three AR-positive PDXs were identified, based on gene expression profile. […] The enzalutamide dose was selected based on previous published experiments (Park et al. (2016) Cancer Invest 34, 517-520; Pollock et al. (2016) Nat Chem Biol 12, 795-801) as well as from internal experiments conducted in prostate cancer xenografts and in Hershberger studies."}, "[1]": {"test_system": "ER-positive metastatic breast cancer", "assay": "Phase 2 trial G200801, 9 mg daily, ER-positive metastatic breast cancer", "type": "in vivo, human", "excerpt": "The goal of this study was to determine the importance of the AR status as a therapeutic target in women with ER-positive metastatic breast cancer (MBC) that had previously responded to hormone therapy. The treatment was continued until disease progression (PD).\nCBR will be correlated with AR status of metastatic tumor biopsy.\nFemale subjects with ER-positive metastatic breast cancer who have previously been treated with up to 3 prior hormonal therapies for the treatment of breast cancer. Subjects must have been treated with and responded to previous adjuvant therapy for ≥3 years or hormonal therapy for metastatic disease for ≥6 months prior to progression. Details of subject selection criteria are presented below:\nThe primary efficacy analysis was the clinical benefit in subjects with AR-positive breast cancer at 6 months as measured by a modified Response Evaluation Criteria in Solid Tumors (RECIST 1.1) classification. Key secondary endpoints of clinical benefit in all subjects and AR-negative subjects, as well as objective response rate, progression free survival, time to progression, duration of response, incidence of SREs, and time to first SRE in subsets based on AR status (i.e., all subjects, AR-positive subjects, and AR-negative subjects) was also assessed. Effects on CA 27-29, PSA, bone turnover markers, QOL, and libido were assessed as tertiary endpoints.\nClinical benefit in a subject is defined as a complete response [CR], a partial response [PR] or stable disease [SD] as measured by modified RECIST 1.1, which is described in detail below. (Eisenhauer E A et al. New response evaluation criteria in solid tumors: revised RECIST guideline (version 1.1). European Journal of Cancer 45:228-247, 2009).\nFor subjects with non-measurable (non-target) disease only at baseline, SD was defined as those with non-CR/non-PD combined response. The primary endpoint of the study was to assess the proportion of subjects with clinical benefit (PCB) at 6 months (CR+PR+SD) in subjects with AR-positive breast cancer."}, "MCF-7-AR cells": {"test_system": "MCF-7-AR cells", "assay": "MCF-7-AR xenograft in ovariectomized, estradiol-supplemented mice", "type": "in vivo", "protocol": "Once tumors reached 100-200 mm^3, the animals were randomized and treated with vehicle or 30 mg/kg per day of Formula VIII. Tumor volumes and body weights were measured thrice weekly. At the end of 5 weeks of treatment, the animals were sacrificed, tumors weighed and stored for RNA and protein isolation and histology. * significance at P<0.05.\nas §1"}}, "note": "Values joined by “and” are separate entries in the source; they are usually repeats but may differ in a detail not shown here. Identical values can stand only once."}
{"smiles": "C[C@](O)(COc1ccc(C#N)cc1)C(=O)Nc1ccc(C#N)c(C(F)(F)F)c1", "note": "[Formula IX, (S)—N-(4-Cyano-3-(trifluoromethyl)phenyl)-3-(4-cyanophenoxy)-2-hydroxy-2-methylpropanamide]", "values": [{"measurement": "tumor growth", "setting": "HCI-7 PDX; 10 mg/kg Formula IX, 30 mg/kg enzalutamide, orally", "result": "inhibited significantly"}, {"measurement": "tumor weights at end of study", "setting": "HCI-7 PDX; 10 mg/kg orally", "result": "significantly smaller"}, {"measurement": "tumor growth (% change in tumor volume)", "setting": "HCI-7 PDX; Formula IX 10 mg/kg, enzalutamide 20 mg/kg, orally, vs vehicle", "result": "grew slowly"}, {"measurement": "AR-positive patients with clinical benefit at 6 months (primary endpoint)", "setting": "[1]; 9 mg daily", "result": "6/17"}, {"measurement": "CR or PR", "setting": "[1]; 9 mg daily", "result": "no CR or PR has been observed"}, {"measurement": "median duration of SD as best response", "setting": "[1]; 9 mg daily", "result": 212, "unit": "days"}, {"measurement": "patients with PSA increase", "setting": "[1]; 9 mg daily", "result": "20 of the 22"}, {"measurement": "tolerability", "setting": "[1]; 9 mg daily", "result": "well-tolerated"}, {"measurement": "subjects with clinical benefit (SD) at 6 months", "setting": "[1]; 9 mg once daily, all subjects", "result": "Seven out of twenty-two"}, {"measurement": "tolerability", "setting": "[1]; 9 mg, no virilization, hematocrit increase or liver toxicity", "result": "well tolerated"}, {"measurement": "A-fib", "setting": "[1]; AE count, 9 mg daily", "result": 1}, {"measurement": "anxiety/emotional changes", "setting": "[1]; AE count, 9 mg daily", "result": 5}, {"measurement": "arthralgia", "setting": "[1]; AE count, 9 mg daily", "result": 6}, {"measurement": "bloating", "setting": "[1]; AE count, 9 mg daily", "result": 2}, {"measurement": "bruising", "setting": "[1]; AE count, 9 mg daily", "result": 1}, {"measurement": "cellulitis", "setting": "[1]; AE count, 9 mg daily", "result": 1}, {"measurement": "chills", "setting": "[1]; AE count, 9 mg daily", "result": 1}, {"measurement": "constipation", "setting": "[1]; AE count, 9 mg daily", "result": 2}, {"measurement": "cough", "setting": "[1]; AE count, 9 mg daily", "result": 1}, {"measurement": "dehydration", "setting": "[1]; AE count, 9 mg daily", "result": 1}, {"measurement": "diarrhea", "setting": "[1]; AE count, 9 mg daily", "result": 3}, {"measurement": "dizziness", "setting": "[1]; AE count, 9 mg daily", "result": 2}, {"measurement": "dysgeusia", "setting": "[1]; AE count, 9 mg daily", "result": 1}, {"measurement": "dyspepsia", "setting": "[1]; AE count, 9 mg daily", "result": 1}, {"measurement": "dyspnea", "setting": "[1]; AE count, 9 mg daily", "result": 3}, {"measurement": "edema", "setting": "[1]; AE count, 9 mg daily", "result": 2}, {"measurement": "fatigue", "setting": "[1]; AE count, 9 mg daily", "result": 14}, {"measurement": "fever", "setting": "[1]; AE count, 9 mg daily", "result": 1}, {"measurement": "flatulence", "setting": "[1]; AE count, 9 mg daily", "result": 1}, {"measurement": "glaucoma", "setting": "[1]; AE count, 9 mg daily", "result": 1}, {"measurement": "headache", "setting": "[1]; AE count, 9 mg daily", "result": 4}, {"measurement": "hot flash night sweats", "setting": "[1]; AE count, 9 mg daily", "result": 7}, {"measurement": "hypertension", "setting": "[1]; AE count, 9 mg daily", "result": 2}, {"measurement": "infection", "setting": "[1]; AE count, 9 mg daily", "result": 1}, {"measurement": "insomnia", "setting": "[1]; AE count, 9 mg daily", "result": 2}, {"measurement": "myalgia", "setting": "[1]; AE count, 9 mg daily", "result": 5}, {"measurement": "nail discoloration", "setting": "[1]; AE count, 9 mg daily", "result": 1}, {"measurement": "nausea", "setting": "[1]; AE count, 9 mg daily", "result": 11}, {"measurement": "pain", "setting": "[1]; AE count, 9 mg daily", "result": 22}, {"measurement": "paresthesia", "setting": "[1]; AE count, 9 mg daily", "result": 1}, {"measurement": "pleural effusion", "setting": "[1]; AE count, 9 mg daily", "result": 1}, {"measurement": "polyuria", "setting": "[1]; AE count, 9 mg daily", "result": 1}, {"measurement": "post menopausal bleeding", "setting": "[1]; AE count, 9 mg daily", "result": 3}, {"measurement": "stiffness", "setting": "[1]; AE count, 9 mg daily", "result": 1}, {"measurement": "tendonitis", "setting": "[1]; AE count, 9 mg daily", "result": 1}, {"measurement": "vision changes", "setting": "[1]; AE count, 9 mg daily", "result": 3}, {"measurement": "vomiting", "setting": "[1]; AE count, 9 mg daily", "result": 2}, {"measurement": "weight gain", "setting": "[1]; AE count, 9 mg daily", "result": 2}, {"measurement": "weight loss", "setting": "[1]; AE count, 9 mg daily", "result": 2}, {"measurement": "subjects with CB as best response", "setting": "[1]; all subjects (9/22)", "result": 41, "unit": "%"}, {"measurement": "Current Disposition", "setting": "[1]; individual patients", "result": "D/C (2×) and Deceased (4×)"}, {"measurement": "Days on Study", "setting": "[1]; individual patients", "result": "255 Days and 105 Days and 7 Days and 18 Days and 158 Days and 308 Days and 52 Days and 63 Days and 230 Days and 84 Days (3×) and 252 Days and 28 Days and 239 Days and 86 Days and 202 Days and 190 Days and 99 Days and 137 Days and 100 Days and 91 Days"}, {"measurement": "Day 84 RECIST", "setting": "[1]; individual patients, 9 mg daily", "result": "D/C SAE and PD SAE and D/C"}, {"measurement": "tumor regression", "setting": "[1]; one subject with SD", "result": 27, "unit": "%"}]}
{"smiles": "C[C@](O)(COc1ccc(C#N)cc1)C(=O)Nc1ccc(C#N)c(Cl)c1", "note": "[Formula VIII, (S)—N-(3-chloro-4-cyanophenyl)-3-(4-cyanophenoxy)-2-hydroxy-2-methylpropanamide]", "values": [{"measurement": "growth inhibition of xenografts", "setting": "MCF-7-AR cells; 30 mg/kg per day, 5 weeks", "result": "greater than 50%"}, {"measurement": "uterus weight", "setting": "MCF-7-AR cells; estrogen supplemented animals", "result": "inhibited"}]}
